The results in this text go back to patent publication US20260274892A1, “MACROCYCLIC BROAD SPECTRUM ANTIBIOTICS” (RQx Pharmaceuticals, Inc., priority 2017, published 2026).

Experiment [1] deals with Escherichia coli ATCC 25922. Description: Minimum inhibitory concentration (MIC), CLSI broth micro-dilution, E. coli. Format: cell-based. As to conditions: Table 6, cation adjusted Mueller Hinton Broth + 0.002% Tween-80, 35° C. A digest of the protocol:
(§1)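 Colonies grown 20 h at 35° C on Trypticase Soy agar (MRSA) or Luria agar (E. coli) were suspended in cation-adjusted Mueller Hinton broth with 0.002% Tween-80. Suspensions were added at OD600 0.0005 to 10-point twofold compound dilutions, then incubated 22 h at 35° C.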

Experiment [2] concerns Methicillin Resistant Staphylococcus aureus strain USA 200. Description: Minimum inhibitory concentration (MIC), CLSI broth micro-dilution, S. aureus. The class given is cell-based. As to conditions: Table 6, MRSA USA 200, cation adjusted Mueller Hinton Broth + 0.002% Tween-80, 35° C., 22 hours. A digest of the protocol: as §1
Setting [3] is: Escherichia coli, ATCC25922, 22 h.
Where [4] appears, read: Staphylococcus aureus, MRSA / USA200.

One may read the MIC as the lowest concentration found to suppress growth. For `Cc1nc(-c2ccc(C(C)(C)C)cc2)ncc1C(=O)N[C@@H](CCN)C(=O)N(C)[C@@H]1C(=O)NCC(=O)N[C@H](C(=O)NCC#N)Cc2ccc(OCCN)c(c2)-c2cc1ccc2OCCN` (racemic) [Compound 476, rac-(8S,14S)-3,18-bis(2-aminoethoxy)-N-(cyanomethyl)-14-[methyl-[rac-(2S)-4-amino-2-[[2-(4-tert-butylphenyl)-4-methyl-pyrimidine-5-carbonyl]amino]butanoyl]amino]-10,13-dioxo-9,12-diazatricyclo[13.3.1.12,6]icosa-1(18),2(20),3,5,15(19),16-hexaene-8-carboxamide], the results for the MIC in experiment [1] (setting [3]) and in experiment [2] (setting [4]) were 1.1 µM and 0.025 µM, respectively.

`Cc1nc(-c2ccc(C(C)(C)C)cc2)ncc1C(=O)N[C@@H](CCN)C(=O)N(C)[C@@H]1C(=O)N[C@@H](CO)C(=O)N[C@H](C(=O)NCC#N)Cc2ccc(OCCN)c(c2)-c2cc1ccc2OCCN` (racemic) [Compound 477, rac-(8S,11S,14S)-3,18-bis(2-aminoethoxy)-N-(cyanomethyl)-11-(hydroxymethyl)-14-[methyl-[rac-(2S)-4-amino-2-[[2-(4-tert-butylphenyl)-4-methyl-pyrimidine-5-carbonyl]amino]butanoyl]amino]-10,13-dioxo-9,12-diazatricyclo[13.3.1.12,6]icosa-1(18),2(20),3,5,15(19),16-hexaene-8-carboxamide]: the MIC in experiment [1] (setting [3]) turned out to be 3.2 µM; in experiment [2] (setting [4]), 0.26 µM.

As for `CCCCCCCc1ccc(C(=O)N[C@@H](CCN)C(=O)N(C)[C@@H]2C(=O)N[C@@H](C3CC3)C(=O)N[C@H](C(=O)NCC#N)Cc3ccc(OCCN)c(c3)-c3cc2ccc3OCCN)c(C)c1` (racemic) [Compound 478, rac-(8S,11S,14S)-3,18-bis(2-aminoethoxy)-N-(cyanomethyl)-11-cyclopropyl-14-[methyl-[rac-(2S)-4-amino-2-[(4-heptyl-2-methyl-benzoyl)amino]butanoyl]amino]-10,13-dioxo-9,12-diazatricyclo[13.3.1.12,6]icosa-1(18),2(20),3,5,15(19),16-hexaene-8-carboxamide], the figures for the MIC in experiment [1] (setting [3]) and in experiment [2] (setting [4]) were 1.1 µM and 0.071 µM, respectively.

`CCCCCCCc1ccc(C(=O)N[C@@H](CCN)C(=O)N(C)[C@@H]2C(=O)N[C@@H](CC)C(=O)N[C@H](C(=O)NCC#N)Cc3ccc(OCCN)c(c3)-c3cc2ccc3OCCN)c(C)c1` (racemic) [Compound 479, rac-(8S,11S,14S)-3,18-bis(2-aminoethoxy)-N-(cyanomethyl)-11-ethyl-14-[methyl-[rac-(2S)-4-amino-2-[(4-heptyl-2-methyl-benzoyl)amino]butanoyl]amino]-10,13-dioxo-9,12-diazatricyclo[13.3.1.12,6]icosa-1(18),2(20),3,5,15(19),16-hexaene-8-carboxamide]: the MIC in experiment [1] (setting [3]) was determined as 0.77 µM; in experiment [2] (setting [4]), 0.027 µM.

Regarding `CCCCCCCc1ccc(C(=O)N[C@@H](CCN)C(=O)N[C@@H]2C(=O)N[C@@H](CC)C(=O)N[C@H](C(=O)NCC#N)Cc3ccc(OCCN)c(c3)-c3cc2ccc3OCCN)c(C)c1` (racemic) [Compound 480, rac-(8S,11S,14S)-3,18-bis(2-aminoethoxy)-N-(cyanomethyl)-11-ethyl-10,13-dioxo-14-[[rac-(2S)-4-amino-2-[(4-heptyl-2-methyl-benzoyl)amino]butanoyl]amino]-9,12-diazatricyclo[13.3.1.12,6]icosa-1(18),2(20),3,5,15(19),16-hexaene-8-carboxamide], the values for the MIC in experiment [1] (setting [3]) and in experiment [2] (setting [4]) were 1.6 µM and 0.061 µM, respectively.

As for `CCCCCCCCCCCCCC(=O)N1C[C@H](N)CC1C(=O)N(C)[C@@H]1C(=O)N[C@@H](C)C(=O)N[C@H](C(=O)NCC#N)Cc2ccc(OCCN)c(c2)-c2cc1ccc2OCCN` (mixture of isomers) [Compound 482, rac-(8S,11S,14S)-3,18-bis(2-aminoethoxy)-14-[(4-amino-1-tetradecanoyl-pyrrolidine-2-carbonyl)-methyl-amino]-N-(cyanomethyl)-11-methyl-10,13-dioxo-9,12-diazatricyclo[13.3.1.12,6]icosa-1(18),2(20),3,5,15(19),16-hexaene-8-carboxamide], the MIC in experiment [1] (setting [3]) was found to be 0.24 µM; in experiment [2] (setting [4]) it was 0.036 µM.

For the compound `CCCCCCCCCCCCCC(=O)N1C[C@H](N)CC1C(=O)N(C)[C@@H]1C(=O)N[C@@H](C)C(=O)N[C@H](C(=O)NCC#N)Cc2ccc(OCCN)c(c2)-c2cc1ccc2OCCN` (mixture of isomers) [Compound 483, rac-(8S,11S,14S)-3,18-bis(2-aminoethoxy)-14-[(4-amino-1-tetradecanoyl-pyrrolidine-2-carbonyl)-methyl-amino]-N-(cyanomethyl)-11-methyl-10,13-dioxo-9,12-diazatricyclo[13.3.1.12,6]icosa-1(18),2(20),3,5,15(19),16-hexaene-8-carboxamide], the MIC in experiment [1] (22 hours) is 0.29 µM; in experiment [2], 0.036 µM.

`Cc1nc(-c2ccc(C(C)(C)C)cc2)nc(C)c1C(=O)N[C@@H](COCCN)C(=O)N(C)[C@@H]1C(=O)N[C@@H](C)C(=O)N[C@H](C(=O)NCC#N)Cc2ccc(OCCN)c(c2)-c2cc1ccc2OCCN` (racemic) [Compound 495, rac-(8S,11S,14S)-3,18-bis(2-aminoethoxy)-N-(cyanomethyl)-11-methyl-14-[methyl-[rac-(2S)-3-(2-aminoethoxy)-2-[[2-(4-tert-butylphenyl)-4,6-dimethyl-pyrimidine-5-carbonyl]amino]propanoyl]amino]-10,13-dioxo-9,12-diazatricyclo[13.3.1.12,6]icosa-1(18),2(20),3,5,15(19),16-hexaene-8-carboxamide]: the MIC in experiment [1] (setting [3]) amounted to 1 µM; in experiment [2] (setting [4]) it was 0.031 µM.

For the compound `Cc1nc(-c2ccc(OC3CCCCC3)cc2)nc(C)c1C(=O)N[C@@H](CCC(N)=O)C(=O)N(C)[C@@H]1C(=O)N[C@@H](C)C(=O)N[C@H](C(=O)NCC#N)Cc2ccc(OCCN)c(c2)-c2cc1ccc2OCCN` (racemic) [Compound 505, rac-(2S)-2-[[2-[4-(cyclohexoxy)phenyl]-4,6-dimethyl-pyrimidine-5-carbonyl]amino]-N-methyl-N-[rac-(7S,10S,13S)-3,18-bis(2-aminoethoxy)-13-(cyanomethylcarbamoyl)-10-methyl-8,11-dioxo-9,12-diazatricyclo[13.3.1.12,6]icosa-1(19),2,4,6(20),15,17-hexaen-7-yl]pentanediamide], the MIC was 1.5 µM in experiment [1] (setting [3]) and 0.094 µM in experiment [2] (setting [4]).

For the compound `CCCCCc1ccc(-c2nc(C)c(C(=O)N[C@@H](CCN)C(=O)N(C)[C@@H]3C(=O)N[C@@H](C)C(=O)N[C@H](C(=O)NCC#N)Cc4ccc(OCCN)c(c4)-c4cc3ccc4OCCN)c(C)n2)cc1` (racemic) [Compound 513, rac-(8S,11S,14S)-3,18-bis(2-aminoethoxy)-N-(cyanomethyl)-11-methyl-14-[methyl-[rac-(2S)-4-amino-2-[[4,6-dimethyl-2-(4-pentylphenyl)pyrimidine-5-carbonyl]amino]butanoyl]amino]-10,13-dioxo-9,12-diazatricyclo[13.3.1.12,6]icosa-1(18),2(20),3,5,15(19),16-hexaene-8-carboxamide], the MIC was 0.097 µM in experiment [1] (setting [3]) and 0.0061 µM in experiment [2] (setting [4]).

In the case of `CCc1ccc(-c2nc(C)c(C(=O)N[C@@H](CCN)C(=O)N(C)[C@@H]3C(=O)N[C@@H](C)C(=O)N[C@H](C(=O)NCC#N)Cc4ccc(O)c(c4)-c4cc3ccc4OCCN)c(C)n2)cc1` (racemic) [Compound 516, rac-(8S,11S,14S)-18-(2-aminoethoxy)-N-(cyanomethyl)-3-hydroxy-11-methyl-14-[methyl-[rac-(2S)-4-amino-2-[[2-(4-ethylphenyl)-4,6-dimethyl-pyrimidine-5-carbonyl]amino]butanoyl]amino]-10,13-dioxo-9,12-diazatricyclo[13.3.1.12,6]icosa-1(18),2(20),3,5,15(19),16-hexaene-8-carboxamide], the MIC in experiment [1] (setting [3]) was 2 µM; in experiment [2] (setting [4]), 0.19 µM.

With `CC(=O)NCCOc1ccc2cc1-c1cc(ccc1OCCN)[C@H](N(C)C(=O)[C@H](CCN)NC(=O)c1c(C)nc(-c3ccc(C(C)(C)C)cc3)nc1C)C(=O)N[C@@H](C)C(=O)N[C@H](C(=O)NCC#N)C2` (racemic) [Compound 517, rac-(8S,11S,14S)-3-(2-acetamidoethoxy)-18-(2-aminoethoxy)-N-(cyanomethyl)-11-methyl-14-[methyl-[rac-(2S)-4-amino-2-[[2-(4-tert-butylphenyl)-4,6-dimethyl-pyrimidine-5-carbonyl]amino]butanoyl]amino]-10,13-dioxo-9,12-diazatricyclo[13.3.1.12,6]icosa-1(18),2(20),3,5,15(19),16-hexaene-8-carboxamide], the figures for the MIC in experiment [1] (setting [3]) and in experiment [2] (setting [4]) were 0.75 µM and 0.19 µM, respectively.

Consider `CCCCCOc1ccc(-c2nc(C)c(C(=O)N[C@@H](CCN)C(=O)N(C)[C@@H]3C(=O)N[C@@H](C)C(=O)N[C@H](C(=O)NCC#N)Cc4ccc(O)c(c4)-c4cc3ccc4OCCN)c(C)n2)cc1` (racemic) [Compound 518, rac-(8S,11S,14S)-18-(2-aminoethoxy)-N-(cyanomethyl)-3-hydroxy-11-methyl-14-[methyl-[rac-(2S)-4-amino-2-[[4,6-dimethyl-2-(4-pentoxyphenyl)pyrimidine-5-carbonyl]amino]butanoyl]amino]-10,13-dioxo-9,12-diazatricyclo[13.3.1.12,6]icosa-1(18),2(20),3,5,15(19),16-hexaene-8-carboxamide], for which the MIC in experiment [1] (setting [3]) turned out to be 0.16 µM; in experiment [2] (setting [4]), 0.028 µM.
